Measurements: patent publication US20250018047A1, “METHODS AND COMPOSITIONS FOR TARGETED PROTEIN DEGRADATION” (Ranok Therapeutics (Hangzhou) Co. Ltd., priority 2021, published 2025)
Read-outs that look alike come from different tables or passages of the source.

Key:
[1] = molecular target: T1, KRAS(G12D)/SOS1 (Homo sapiens, UniProt P01116, G12D); assay: KRAS(G12D)/SOS1 homogeneous time-resolved fluorescence (HTRF) assay; assay type: binding; details: absence of GTP, 4° C. for 3 hr
T1 construct: purchased Cisbio 63ADK000CB16PEG
Procedure: The test compound was mixed and incubated with reaction components, incubated in a sealed plate at 4° C. for 3 hr and fluorescence was measured using a PerkinElmer Envision plate reader.

[2] = system: A-427 human lung carcinoma; assay: CellTiter-Glo cancer cell line proliferation assay, A-427; assay type: cell-based; details: read-out: A427 at 24 hrs, IC50
Procedure: (§1) Cell lines were cultured according to ATCC and recommendations.
(§2) CellTiter-Glo® Reagent Cancer Cell Line Proliferation Assays
(§3) Cells were plated in 96-well tissue culture plates at 4,000 cells/well and incubated at 37° C./5% CO2 for 24 hr in 100 μl of media. […] Cells were then treated with test compounds at various concentrations with a final concentration of 0.5% DMSO/well, and then incubated at 37° C./5% CO2 for 24 hr. 100 μl of CellTiter-Glo® Reagent (Promega Corporation, Madison, WI) was added to each well and processed according manufacturer's protocol. Results were analyzed and IC50-values were calculated in GraphPad 7 software.

[3] = molecular target: T2, KRAS(G12D) (Homo sapiens, UniProt P01116, G12D); assay: SW1990 WB assay (degradation DC50, Dmax); assay type: cell-based; details: Western blot, SW1990 cells
T2 construct: endogenous in cells; host or cells: SW1990

[4] = system: AsPC-1 human pancreatic adenocarcinoma; assay: CellTiter-Glo cancer cell line proliferation assay, AsPC-1; assay type: cell-based
Procedure: as §1, §2, §3

T2 sequence (P01116 1-188 isoform P01116-2 G12D): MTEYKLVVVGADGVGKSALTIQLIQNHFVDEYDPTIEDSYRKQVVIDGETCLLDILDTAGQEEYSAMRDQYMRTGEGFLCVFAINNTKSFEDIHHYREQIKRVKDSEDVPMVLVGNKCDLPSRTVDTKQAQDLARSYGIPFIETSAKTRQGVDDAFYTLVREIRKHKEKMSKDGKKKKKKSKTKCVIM
T1 sequence (P01116 1-188 isoform P01116-2 G12D): as above

For `C#Cc1cccc2cc(O)cc(-c3ncc4c(N5CC6CCC(C5)N6)nc(OCC5(CN6CCN(CC7CCN(c8ccc9c(c8)CN(C8CCC(=O)N(C)C8=O)C9=O)CC7)CC6)CC5)nc4c3F)c12` (stereo not drawn) [Compound 71], the IC50 [1] was less than 100 nM, the IC50 ([2]; Homo sapiens, A-427, 24 hr) was 100 to 1000 nM and the DC50 [3] was greater than 1000 nM. It also gave a Dmax [3] of 10 to 50%.

In the case of `C#Cc1cccc2cccc(-c3ncc4c(N5CC6CCC(C5)N6)nc(OC[C@H]5C[C@@H](N6CCN(C[C@H]7CC[C@H](Nc8ccc9c(c8)C(=O)N(C8CCC(=O)NC8=O)C9=O)CC7)CC6)CN5C)nc4c3F)c12` (stereo partly drawn) [Compound 77], the IC50 [1] is reported as less than 100 nM, the IC50 ([4]; Homo sapiens, ASPC1, 24 hr) is reported as greater than 1000 nM and the IC50 ([2]; Homo sapiens, A-427, 24 hr) is reported as greater than 1000 nM.

In the case of `C#Cc1cccc2cccc(-c3ncc4c(N5CC6CCC(C5)N6)nc(OC[C@H]5CC[C@@H](CN6CCN(CC7CCC(Nc8ccc9c(c8)C(=O)N(C8CCC(=O)NC8=O)C9=O)CC7)CC6)N5C)nc4c3F)c12` (stereo partly drawn) [Compound 79], the IC50 [1] is reported as less than 100 nM, the IC50 ([4]; Homo sapiens, ASPC1, 24 hr) is reported as greater than 1000 nM and the IC50 ([2]; Homo sapiens, A-427, 24 hr) is reported as greater than 1000 nM.

In the case of `O=C1CCC(N2Cc3cc(N4CCN(CC5(COc6nc(N7CC8CCC(C7)N8)c7cnc(-c8cccc9cccc(Cl)c89)c(F)c7n6)CC5)CC4)ccc3C2=O)C(=O)N1` (stereo not drawn) [Compound 80], the IC50 [1] is reported as less than 100 nM, the IC50 ([4]; Homo sapiens, ASPC1, 24 hr) is reported as greater than 1000 nM and the IC50 ([2]; Homo sapiens, A-427, 24 hr) is reported as greater than 1000 nM.

`C#Cc1cccc2cc(O)cc(-c3ncc4c(N5CC6CCC(C5)N6)nc(OCC5(CN(C)CC6CCN(c7ccc8c(c7)CN(C7CCC(=O)NC7=O)C8=O)CC6)CC5)nc4c3F)c12` (stereo not drawn) [Compound 84] gave an IC50 ([4]; Homo sapiens, ASPC1, 24 hr) greater than 1000 nM, an IC50 ([2]; Homo sapiens, A-427, 24 hr) greater than 1000 nM and a DC50 [3] of 100 to 1000 nM. It also gave a Dmax [3] greater than 50%.

`C#Cc1cccc2cc(O)cc(-c3ncc4c(N5CC6CCC(C5)N6)nc(OCC5(CN6CCC(C(=O)N7CCN(c8ccc9c(c8)CN(C8CCC(=O)NC8=O)C9=O)CC7)CC6)CC5)nc4c3F)c12` (stereo not drawn) [Compound 85] showed an IC50 ([4]; Homo sapiens, ASPC1, 24 hr) greater than 1000 nM, an IC50 ([2]; Homo sapiens, A-427, 24 hr) of less than 100 nM and a DC50 [3] of 100 to 1000 nM. It also gave a Dmax [3] greater than 50%.

`C#Cc1cccc2cc(O)cc(-c3ncc4c(N5CC6CCC(C5)N6)nc(OCC5(CN6CCN(CC7CCN(c8ccc9c(c8)C(=O)N(C8CCC(=O)NC8=O)C9)CC7)CC6)CC5)nc4c3F)c12` (stereo not drawn) [Compound 86] was tested, and the IC50 ([4]; Homo sapiens, ASPC1, 24 hr) was less than 100 nM, the IC50 ([2]; Homo sapiens, A-427, 24 hr) was less than 100 nM and the DC50 [3] was less than 100 nM. It also gave a Dmax [3] greater than 50%.

For `C#Cc1cccc2cc(O)cc(-c3ncc4c(N5CC6CCC(C5)N6C(=O)C(F)(F)F)nc(OCC5(CN6CCN(CC7CCN(c8ccc9c(c8)CN(C8CCC(=O)NC8=O)C9=O)CC7)CC6)CC5)nc4c3F)c12.Cl` (stereo not drawn) [Compound 87], the IC50 ([4]; 24 hr, read-out: ASPC1 at 24 hrs, IC50) was 100 to 1000 nM, the IC50 ([2]; 24 hr) was 100 to 1000 nM and the “WB data SW1990 DMax” value [3] was “B (Dmax = 10-50%)”.

`C#Cc1c(F)ccc2cc(O)cc(-c3ncc4c(N5CC6CCC(C5)N6C(=O)CC)nc(OCC5(CN6CCN(CC7CCN(c8ccc9c(c8)CN(C8CCC(=O)NC8=O)C9=O)CC7)CC6)CC5)nc4c3F)c12` (stereo not drawn) [Compound 91] gave an IC50 ([4]; Homo sapiens, ASPC1, 24 hr) greater than 1000 nM, an IC50 ([2]; Homo sapiens, A-427, 24 hr) greater than 1000 nM and a DC50 [3] greater than 1000 nM. The Dmax [3] was less than 10%.

With `C#Cc1c(F)ccc2cc(O)cc(-c3nc(OC)c4c(N5CCN(C(=O)CC)[C@H](CC#N)C5)nc(OCC5(CN6CCN(CC7CCN(c8ccc9c(c8)CN(C8CCC(=O)NC8=O)C9=O)CC7)CC6)CC5)nc4c3F)c12` (stereo partly drawn) [Compound 92] the IC50 [1] was less than 100 nM, the IC50 ([4]; Homo sapiens, ASPC1, 24 hr) was greater than 1000 nM and the IC50 ([2]; Homo sapiens, A-427, 24 hr) was greater than 1000 nM.

In the case of `C#Cc1c(F)ccc2cc(O)cc(-c3ncc4c(N5CCN(C(=O)CC)[C@@H](CC#N)C5)nc(OCC5(CN6CCN(CC7CCN(c8ccc9c(c8)CN(C8CCC(=O)NC8=O)C9=O)CC7)CC6)CC5)nc4c3F)c12` (stereo partly drawn) [Compound 97], the IC50 [1] is reported as less than 100 nM, the IC50 ([4]; Homo sapiens, ASPC1, 24 hr) is reported as greater than 1000 nM and the IC50 ([2]; Homo sapiens, A-427, 24 hr) is reported as greater than 1000 nM.

For `C#Cc1c(F)ccc2cc(O)cc(-c3nc(O)c4c(N5CC6CCC(C5)N6)nc(OCC5(CN6CCN(CC7CCN(c8ccc9c(c8)CN(C8CCC(=O)NC8=O)C9=O)CC7)CC6)CC5)nc4c3F)c12` (stereo not drawn) [Compound 101], the IC50 ([4]; Homo sapiens, ASPC1, 24 hr) was 100 to 1000 nM, the IC50 ([2]; Homo sapiens, A-427, 24 hr) was greater than 1000 nM and the DC50 [3] was greater than 1000 nM. For the same molecule, the Dmax [3] was less than 10%.

With `C#Cc1c(F)ccc2cc(O)cc(-c3ncc4c(N5CC6CCC(C5)N6)nc(OCC5(CN6CCN(C7CCN(c8ccc9c(c8)CN(C8CCC(=O)NC8=O)C9=O)CC7)CC6)CC5)nc4c3F)c12` (stereo not drawn) [Compound 104] the IC50 [1] was less than 100 nM, the IC50 ([4]; Homo sapiens, ASPC1, 24 hr) was 100 to 1000 nM and the DC50 [3] was less than 100 nM. The Dmax [3] was greater than 50%.

Work on `C#Cc1c(F)ccc2cc(O)cc(-c3ncc4c(N5CC6CCC(C5)N6)nc(OCC5(CN6CCC(N7CCC(c8ccc9c(c8)CN(C8CCC(=O)NC8=O)C9=O)CC7)CC6)CC5)nc4c3F)c12` (stereo not drawn) [Compound 107] yielded an IC50 [1] of less than 100 nM, an IC50 ([4]; Homo sapiens, ASPC1, 24 hr) of less than 100 nM and a DC50 [3] of less than 100 nM.

In the case of `C#Cc1c(F)ccc2cc(O)cc(-c3ncc4c(N5CC6CCC(C5)N6)nc(OCC5(CN6CCC(CN7CCC(c8ccc9c(c8)CN(C8CCC(=O)NC8=O)C9=O)CC7)CC6)CC5)nc4c3F)c12` (stereo not drawn) [Compound 111], the IC50 [1] is reported as less than 100 nM, the DC50 [3] is reported as less than 100 nM and the Dmax [3] is reported as greater than 50%.

With `C#Cc1c(F)ccc2cc(O)cc(-c3nc(OC)c4c(N5CC6CCC(C5)N6)nc(OCC5(CN6CCN(C7CCN(c8ccc9c(c8)CN(C8CCC(=O)NC8=O)C9=O)CC7)CC6)CC5)nc4c3F)c12` (stereo not drawn) [Compound 112] the IC50 [1] was less than 100 nM and the DC50 [3] was less than 100 nM.
